Experimental data reported in ChEMBL document CHEMBL1136786, “2002 Medicinal Chemistry Division Award address: monoamine transporters and opioid receptors. Targets for addiction therapy” (J Med Chem, 2003).
“And” between values parts separate entries of the source, which are not always exact repeats. Equal values may be shown once. The source made the active and inactive calls. The calls are words filed in the database; no cut-off is given here.

What was measured:
Mus musculus [1] = organism: Mus musculus; assay: Antagonistic activity of nicotine-induced hypothermia in mice was determined; format: functional
Mus musculus [2] = organism: Mus musculus; assay: Antagonistic activity of nicotine-induced analgesia in mice was determined; format: functional
[3] = molecular target: T1, Norepinephrine transporter (Rattus norvegicus, UniProt Q9WTR4); assay: Affinity for norepinephrine transporter determined by [3H]nisoxetine displacement.
[4] = molecular target: Sodium-dependent dopamine transporter (Rattus norvegicus, UniProt P23977); assay: Inhibition of [3H]WIN-35428 binding at dopamine transporter was determined
[5] = molecular target: Sodium-dependent serotonin transporter (Rattus norvegicus, UniProt P31652); assay: Inhibition of [3H]paroxetine binding at serotonin transporter was determined
[6] = molecular target: T1, Norepinephrine transporter; assay: Inhibition of [3H]nisoxetine binding at norepinephrine transporter
Rattus norvegicus [7] = assay: Effective dose of compound required to produce maximal locomotor activity in cocaine-trained rat by oral administration; format: functional
Rattus norvegicus [8] = assay: Effective dose of compound required to produce maximal locomotor activity in rat by intraperitoneal administration; format: functional; conditions: ip
Rattus norvegicus [9] = assay: Time taken to produce maximal locomotor activity at 30 min period in rat by intraperitoneal administration; format: functional
Rattus norvegicus [10] = assay: Time during which activity returned to baseline level in rat by oral administration; format: functional
Rattus norvegicus [11] = assay: Time during which activity returned to baseline level in rat by intraperitoneal administration; format: functional
Rattus norvegicus [12] = assay: Effective dose of compound required to produce maximal locomotor activity in cocaine-trained rat by intraperitoneal administration; format: functional; conditions: ip
Rattus norvegicus [13] = assay: Time taken to produce maximal locomotor activity at 30 min period in rat by oral administration; format: functional
Rattus norvegicus [14] = assay: Maximal locomotor activity of compound compared as a percent of cocaine's effect in rat by intraperitoneal administration; format: functional
Rattus norvegicus [15] = assay: Effective dose of compound required to produce maximal locomotor activity in rat by oral administration; format: functional
Rattus norvegicus [16] = assay: Maximal locomotor activity of compound compared as a percent of cocaine's effect in rat by oral administration; format: functional
Rattus norvegicus [17] = assay: Degradation rate constant for dopamine transporter in striatum after intraventricular injection of 100 nmol of compound; format: functional
Rattus norvegicus [18] = organism: Rattus norvegicus; format: functional, Striatum
Rattus norvegicus [19] = assay: Half life of recovery for dopamine transporter in nucleus accumbens after intraventricular injection of 100 nmol of compound; format: functional, organism-based
Rattus norvegicus [20] = organism: Rattus norvegicus; format: functional, Cardiac ventricle
Rattus norvegicus [21] = assay: Half life of recovery for dopamine transporter in striatum after intraventricular injection of 100 nmol of compound; format: functional, organism-based
Rattus norvegicus [22] = assay: Degradation rate constant for dopamine transporter in nucleus accumbens after intraventricular injection of 100 nmol of compound; format: functional
[23] = molecular target: Kappa-type opioid receptor (Cavia porcellus) (UniProt P41144)
Description: Inhibition of [35S]GTP-gamma-S, binding in cloned Opioid receptor kappa 1 stimulated by U69, 593

[24] = molecular target: Mu-type opioid receptor (Cavia porcellus) (UniProt P97266); assay: Inhibition of [35S]GTP-gamma-S, binding in guines pig caudate stimulated by DAMGO for Opioid receptor mu 1; format: functional
[25] = molecular target: Kappa-type opioid receptor (Cavia porcellus) (UniProt P41144); remark: listed apart in the source
Description: Inhibition of [35S]GTP-gamma-S, binding in guines pig caudate stimulated by U50, 488 of Opioid receptor kappa 1

[26] = molecular target: Mu-type opioid receptor (Cavia porcellus) (UniProt P97266)
Description: Inhibition of [35S]GTP-gamma-S, binding in cloned Opioid receptor mu 1 stimulated by DAMGO

Rattus norvegicus [27] = organism: Rattus norvegicus; assay: Half life of recovery for dopamine transporter in striatum was determined; format: functional
Rattus norvegicus [28] = organism: Rattus norvegicus; assay: Degradation rate constant for dopamine transporter in nucleus accumbens was determined; format: functional
Rattus norvegicus [29] = organism: Rattus norvegicus; assay: Half life of recovery for dopamine transporter in nucleus accumbens was determined; format: functional
Rattus norvegicus [30] = organism: Rattus norvegicus; assay: Degradation rate constant for dopamine transporter in striatum was determined; format: functional
[31] = molecular target: D(1A) dopamine receptor (Rattus norvegicus) (UniProt P18901); conditions: Striatum
[32] = molecular target: D(1A) dopamine receptor (Rattus norvegicus) (UniProt P18901); conditions: Striatum; remark: listed apart in the source
[33] = molecular target: Kappa-type opioid receptor (Cavia porcellus) (UniProt P41144); remark: listed apart in the source
Description: Inhibition of [35S]GTP-gamma-S, binding in cloned Opioid receptor kappa 1 stimulated by U50,488

[34] = molecular target: Delta-type opioid receptor (Homo sapiens) (UniProt P41143); conditions: Cavia porcellus
Description: Inhibition of [35S]GTP-gamma-S, binding in cloned Opioid receptor delta 1 stimulated by SNC-80

[35] = molecular target: Kappa-type opioid receptor (Cavia porcellus) (UniProt P41144); assay: Inhibition of [35S]GTP-gamma-S, binding in guines pig caudate stimulated by U69, 593 of Opioid receptor kappa 1; format: functional
[36] = molecular target: Sodium-dependent noradrenaline transporter (Homo sapiens, UniProt P23975); assay: Inhibition of Norepinephrine (NA) reuptake using cloned human Norepinephrine transporter was determined
[37] = molecular target: Sodium-dependent serotonin transporter (Homo sapiens, UniProt P31645); assay: Inhibition of Serotonin (5-HT) reuptake using cloned human transporter was determined
[38] = molecular target: Sodium-dependent dopamine transporter (Homo sapiens, UniProt Q01959); assay: Inhibition of dopamine (DA) reuptake using cloned human dopamine transporter was determined
Sequence of Sodium-dependent dopamine transporter (Homo sapiens, UniProt Q01959) (Q01959 whole entry): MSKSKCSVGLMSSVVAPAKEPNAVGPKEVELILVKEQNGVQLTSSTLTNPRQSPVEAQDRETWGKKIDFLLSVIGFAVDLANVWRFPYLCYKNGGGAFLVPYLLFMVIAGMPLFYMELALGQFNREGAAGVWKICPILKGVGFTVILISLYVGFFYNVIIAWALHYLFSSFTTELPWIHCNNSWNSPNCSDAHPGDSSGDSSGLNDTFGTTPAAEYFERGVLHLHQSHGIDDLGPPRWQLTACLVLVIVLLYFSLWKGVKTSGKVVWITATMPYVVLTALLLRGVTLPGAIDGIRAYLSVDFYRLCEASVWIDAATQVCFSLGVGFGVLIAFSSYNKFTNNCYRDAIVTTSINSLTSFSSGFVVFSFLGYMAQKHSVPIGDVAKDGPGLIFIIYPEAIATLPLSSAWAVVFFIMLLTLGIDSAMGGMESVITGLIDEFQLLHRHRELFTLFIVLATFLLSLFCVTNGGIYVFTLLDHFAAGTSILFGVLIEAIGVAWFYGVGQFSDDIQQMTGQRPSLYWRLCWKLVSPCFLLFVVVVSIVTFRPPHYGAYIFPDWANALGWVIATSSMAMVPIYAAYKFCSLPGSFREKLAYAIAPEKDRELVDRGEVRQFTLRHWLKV

Sequence of Sodium-dependent dopamine transporter (Rattus norvegicus, UniProt P23977) (P23977 whole entry): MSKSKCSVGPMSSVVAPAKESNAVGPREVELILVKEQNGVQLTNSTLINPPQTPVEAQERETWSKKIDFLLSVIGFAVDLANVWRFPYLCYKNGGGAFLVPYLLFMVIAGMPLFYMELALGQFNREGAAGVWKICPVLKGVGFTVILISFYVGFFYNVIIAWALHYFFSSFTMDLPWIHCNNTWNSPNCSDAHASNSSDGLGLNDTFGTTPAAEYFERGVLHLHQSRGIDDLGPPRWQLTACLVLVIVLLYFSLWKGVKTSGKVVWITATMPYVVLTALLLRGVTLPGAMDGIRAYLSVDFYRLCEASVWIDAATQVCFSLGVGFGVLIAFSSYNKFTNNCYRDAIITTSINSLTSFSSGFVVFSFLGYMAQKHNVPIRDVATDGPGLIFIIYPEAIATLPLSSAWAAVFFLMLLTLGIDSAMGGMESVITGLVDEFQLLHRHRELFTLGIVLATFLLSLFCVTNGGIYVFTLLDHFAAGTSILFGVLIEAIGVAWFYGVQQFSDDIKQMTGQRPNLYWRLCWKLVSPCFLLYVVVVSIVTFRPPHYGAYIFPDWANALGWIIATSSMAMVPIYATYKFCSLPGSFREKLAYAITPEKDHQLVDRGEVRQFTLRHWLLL
Sequence of Mu-type opioid receptor (Cavia porcellus) (P97266 whole entry): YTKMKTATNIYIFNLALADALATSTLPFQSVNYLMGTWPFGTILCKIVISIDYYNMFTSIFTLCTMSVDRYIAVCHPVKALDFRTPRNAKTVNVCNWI
T1 sequence (Q9WTR4 whole entry): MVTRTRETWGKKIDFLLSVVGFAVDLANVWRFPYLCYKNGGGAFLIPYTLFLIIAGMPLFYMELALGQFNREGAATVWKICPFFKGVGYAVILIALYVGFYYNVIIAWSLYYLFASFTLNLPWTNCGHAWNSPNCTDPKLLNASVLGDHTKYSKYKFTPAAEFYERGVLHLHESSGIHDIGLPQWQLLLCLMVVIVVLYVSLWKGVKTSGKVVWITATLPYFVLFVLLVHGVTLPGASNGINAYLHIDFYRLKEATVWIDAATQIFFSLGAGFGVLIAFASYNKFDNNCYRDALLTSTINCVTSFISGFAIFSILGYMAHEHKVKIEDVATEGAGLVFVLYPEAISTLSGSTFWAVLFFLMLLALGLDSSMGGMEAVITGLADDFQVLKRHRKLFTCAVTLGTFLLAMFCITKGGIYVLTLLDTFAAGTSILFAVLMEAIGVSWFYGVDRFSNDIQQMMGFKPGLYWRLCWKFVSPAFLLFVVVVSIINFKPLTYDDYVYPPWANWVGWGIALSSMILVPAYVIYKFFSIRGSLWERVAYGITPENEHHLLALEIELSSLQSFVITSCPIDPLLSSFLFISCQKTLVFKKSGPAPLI
Sequence of Kappa-type opioid receptor (Cavia porcellus) (P41144 whole entry): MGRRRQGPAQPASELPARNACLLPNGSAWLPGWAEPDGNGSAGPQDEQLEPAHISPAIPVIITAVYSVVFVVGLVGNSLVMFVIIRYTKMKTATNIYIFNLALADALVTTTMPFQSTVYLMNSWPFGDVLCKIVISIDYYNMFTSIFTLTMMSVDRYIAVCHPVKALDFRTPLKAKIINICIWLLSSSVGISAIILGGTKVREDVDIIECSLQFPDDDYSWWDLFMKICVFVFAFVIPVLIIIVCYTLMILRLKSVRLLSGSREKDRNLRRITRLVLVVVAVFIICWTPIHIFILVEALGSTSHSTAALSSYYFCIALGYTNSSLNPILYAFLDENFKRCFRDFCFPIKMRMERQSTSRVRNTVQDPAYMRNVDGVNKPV
Sequence of Sodium-dependent serotonin transporter (Rattus norvegicus, UniProt P31652) (P31652 whole entry): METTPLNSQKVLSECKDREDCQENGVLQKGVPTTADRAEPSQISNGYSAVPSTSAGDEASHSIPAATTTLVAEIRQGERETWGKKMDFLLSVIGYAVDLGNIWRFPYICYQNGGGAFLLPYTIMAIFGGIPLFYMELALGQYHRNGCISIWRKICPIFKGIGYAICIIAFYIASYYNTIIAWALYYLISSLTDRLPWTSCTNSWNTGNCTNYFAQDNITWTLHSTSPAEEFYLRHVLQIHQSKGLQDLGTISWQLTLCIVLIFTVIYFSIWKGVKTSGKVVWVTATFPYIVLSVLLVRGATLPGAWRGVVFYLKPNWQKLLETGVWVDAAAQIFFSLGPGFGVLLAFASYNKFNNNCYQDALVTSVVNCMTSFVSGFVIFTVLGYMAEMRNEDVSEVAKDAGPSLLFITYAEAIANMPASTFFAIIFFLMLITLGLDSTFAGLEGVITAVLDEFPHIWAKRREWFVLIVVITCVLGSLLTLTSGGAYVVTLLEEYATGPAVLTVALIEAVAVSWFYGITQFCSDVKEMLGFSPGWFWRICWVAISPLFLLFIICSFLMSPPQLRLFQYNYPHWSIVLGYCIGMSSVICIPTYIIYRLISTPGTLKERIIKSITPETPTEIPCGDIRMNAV
Sequence of D(1A) dopamine receptor (Rattus norvegicus) (P18901 whole entry): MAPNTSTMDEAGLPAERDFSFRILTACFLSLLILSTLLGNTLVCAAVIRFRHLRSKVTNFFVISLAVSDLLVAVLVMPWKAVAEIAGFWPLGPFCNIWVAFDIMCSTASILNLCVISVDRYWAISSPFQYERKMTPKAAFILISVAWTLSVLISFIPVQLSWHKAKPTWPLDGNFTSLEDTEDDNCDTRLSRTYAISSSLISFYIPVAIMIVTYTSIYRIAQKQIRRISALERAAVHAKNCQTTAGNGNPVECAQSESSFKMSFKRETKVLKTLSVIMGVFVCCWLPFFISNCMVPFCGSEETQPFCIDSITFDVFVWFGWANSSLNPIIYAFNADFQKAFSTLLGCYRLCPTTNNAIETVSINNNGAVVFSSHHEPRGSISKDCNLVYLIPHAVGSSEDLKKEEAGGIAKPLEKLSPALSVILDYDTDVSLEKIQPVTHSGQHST
Sequence of Sodium-dependent noradrenaline transporter (P23975 whole entry): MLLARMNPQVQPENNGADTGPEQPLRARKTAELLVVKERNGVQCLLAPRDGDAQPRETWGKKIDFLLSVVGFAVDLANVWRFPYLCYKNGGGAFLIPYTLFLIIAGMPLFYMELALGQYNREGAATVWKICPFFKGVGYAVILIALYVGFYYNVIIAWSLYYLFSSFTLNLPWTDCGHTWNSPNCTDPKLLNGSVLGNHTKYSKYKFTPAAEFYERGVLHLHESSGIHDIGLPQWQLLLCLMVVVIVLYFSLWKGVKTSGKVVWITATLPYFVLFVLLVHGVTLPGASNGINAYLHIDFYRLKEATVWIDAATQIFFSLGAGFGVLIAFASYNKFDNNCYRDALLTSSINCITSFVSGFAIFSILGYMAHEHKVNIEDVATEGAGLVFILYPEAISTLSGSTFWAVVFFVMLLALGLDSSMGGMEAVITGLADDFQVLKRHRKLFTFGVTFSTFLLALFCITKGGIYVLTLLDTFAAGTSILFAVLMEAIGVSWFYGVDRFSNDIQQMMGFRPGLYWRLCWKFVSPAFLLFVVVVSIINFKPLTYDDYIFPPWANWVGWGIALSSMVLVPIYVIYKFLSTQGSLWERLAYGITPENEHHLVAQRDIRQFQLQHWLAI
Sequence of Sodium-dependent serotonin transporter (Homo sapiens, UniProt P31645) (P31645 whole entry): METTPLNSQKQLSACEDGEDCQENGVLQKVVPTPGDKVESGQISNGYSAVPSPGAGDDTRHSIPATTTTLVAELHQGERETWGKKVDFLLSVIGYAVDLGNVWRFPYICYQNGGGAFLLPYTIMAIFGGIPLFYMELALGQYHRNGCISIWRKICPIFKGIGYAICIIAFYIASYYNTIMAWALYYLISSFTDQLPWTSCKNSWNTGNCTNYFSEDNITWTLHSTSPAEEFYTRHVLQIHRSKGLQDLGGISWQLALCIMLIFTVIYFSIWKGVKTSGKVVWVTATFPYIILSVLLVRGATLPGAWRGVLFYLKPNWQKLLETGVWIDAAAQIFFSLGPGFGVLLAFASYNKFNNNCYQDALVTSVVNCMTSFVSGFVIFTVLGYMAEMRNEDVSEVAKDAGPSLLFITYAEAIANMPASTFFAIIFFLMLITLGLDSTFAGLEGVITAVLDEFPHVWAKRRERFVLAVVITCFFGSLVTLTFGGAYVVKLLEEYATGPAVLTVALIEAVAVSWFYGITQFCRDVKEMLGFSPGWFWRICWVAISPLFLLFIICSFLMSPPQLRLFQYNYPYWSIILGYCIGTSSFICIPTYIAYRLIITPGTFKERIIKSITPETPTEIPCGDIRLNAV

`CC(NC(C)(C)C)C(=O)c1cccc(Cl)c1` (stereo not drawn) [BUPROPION] was tested, and the AD50 (Mus musculus [1]) was 16 mM/kg and the AD50 (Mus musculus [2]) was 9 mM/kg.

Work on `CN1C2CC[C@@H]1C[C@H](c1ccc(Cl)cc1)C2C(=O)N1CCCC1` (stereo partly drawn) yielded a Ki [3] of 2370 nM, an IC50 [4] of 1.38 nM and an IC50 [5] of 12400 nM. The Ki [5] was 1130 nM and the IC50 [6] was 3940 nM.

`COC(=O)C1C2CC[C@H](C[C@@H]1c1ccc(C)cc1)N2` (stereo partly drawn) showed a Ki [3] of 5.4 nM, an IC50 [4] of 33.6 nM and an IC50 [5] of 500 nM. The Ki [5] was 46 nM and the IC50 [6] was 9 nM.

Molecule `Cc1ccc([C@H]2C[C@H]3CCC(C2C(=O)OC(C)C)N3C)cc1` (stereo partly drawn) has an ED50 (Rattus norvegicus [7]) of 5.7 mg/kg, a Ki [3] of 1160 nM and an IC50 [4] of 6.45 nM. The ED50 (Rattus norvegicus [8]) was 3.1 mg/kg, the IC50 [5] was 6090 nM and the Ki [5] was 554 nM. The Peak time (Rattus norvegicus [9]) was 10 min, the IC50 [6] was 1930 nM and the Time (Rattus norvegicus [10]) was >4 h. For the same molecule, the Time (Rattus norvegicus [11]) was >4 h, the ED50 (Rattus norvegicus [12]) was 4.4 mg/kg and the Peak time (Rattus norvegicus [13]) was 100 min. For the same molecule, the “Maximal locomotor activity (% of cocaine)” value (Rattus norvegicus [14]) was 103%, the ED50 (Rattus norvegicus [15]) was 4.7 mg/kg and the Cocaine (Rattus norvegicus [16]) was 116%.

`CN1C2CC[C@@H]1C[C@H](c1ccc(Cl)cc1)C2C(=O)OCCc1ccc(N=S)cc1` (stereo partly drawn) was tested, and the “Transporter deg rate const (k)” value (Rattus norvegicus [17]) was 0.34 day⁻¹, the “Transporter production rate (r)” value (Rattus norvegicus [18]) was 202 fM/mg/day and the T1/2 (Rattus norvegicus [19]) was 50.4 h. The Ki [3] was 843 nM, the “Transporter production rate (r)” value (Rattus norvegicus [20]) was 106 fM/mg/day and the IC50 [4] was 5.3 nM. For the same molecule, the IC50 [5] was 7.1 nM, the Ki [5] was 0.65 nM and the IC50 [6] was 1400 nM. For the same molecule, the T1/2 (Rattus norvegicus [21]) was 50.4 h and the “Transporter deg rate const (k)” value (Rattus norvegicus [22]) was 0.3 day⁻¹.

For `CCc1ccc([C@H]2C[C@H]3CCC(N3)C2C(=O)OC)cc1I` (stereo partly drawn), the Ki [3] was 89 nM, the IC50 [4] was 329 nM and the IC50 [5] was 0.69 nM. The Ki [5] was 0.063 nM and the IC50 [6] was 148 nM.

`Oc1ccc2c3c1O[C@H]1c4[nH]c5c(c4C[C@@]4(O)[C@@H](C2)N(CC2CC2)CC[C@]314)C[C@@]1(O)[C@H]2Cc3ccc(O)c4c3[C@@]1(CCN2CC1CC1)[C@H]5O4` showed a Ke [23] of 0.07 nM, a Ke [24] of 16.8 nM and a Ke [25] of 0.038 nM. It also gave a Ke [26] of 15.8 nM.

With `COC(=O)[C@H]1[C@@H](OC(=O)c2ccccc2)C[C@@H]2CC[C@H]1N2C` [COCAINE] the Change (Rattus norvegicus [27]) was 22%, the Change (Rattus norvegicus [28]) was -30% and -27% and the Change (Rattus norvegicus [29]) was 43%. The ED50 (Rattus norvegicus [8]) was 21 mg/kg, the Peak time (Rattus norvegicus [9]) was 0 min and the Time (Rattus norvegicus [11]) was <2 h. For the same molecule, the ED50 (Rattus norvegicus [12]) was 2.5 mg/kg, the Change (Rattus norvegicus [30]) was -17% and -16% and the “Maximal locomotor activity (% of cocaine)” value (Rattus norvegicus [14]) was 100%.

`CN1CCc2cc(Cl)c(O)cc2[C@@H](c2ccccc2)C1` was tested, and the NC [31] was “inactive” and the NC [32] was “inactive”.

In the case of `CC(C)[C@@H](CN1CC[C@@](C)(c2cccc(O)c2)[C@@H](C)C1)NC(=O)[C@H]1Cc2ccc(O)cc2CN1`, the Ke [33] is reported as 6 pM, the Ke [34] is reported as > 100 nM and the Ke [26] is reported as 3.42 nM.

Molecule `C[C@H]1C2CCCC1(c1cccc(O)c1)CCN2CCc1ccccc1` (stereo partly drawn) has a Ke [35] of 1.34 nM and a Ke [24] of 0.338 nM.

`COC(=O)C1C2CC[C@H](C[C@@H]1c1ccc(Cl)cc1)N2C` (stereo partly drawn) was tested, and the Ki [5] was 4.1 nM.

Work on `COC(=O)[C@@H]1C2CC[C@H](C[C@@H]1c1ccccc1)N2C.Cl` yielded a Ki [3] of 554 nM, an ED50 (Rattus norvegicus [8]) of 2.1 mg/kg and a Peak time (Rattus norvegicus [9]) of 10 min. The Time (Rattus norvegicus [11]) was 2 h, the ED50 (Rattus norvegicus [12]) was 0.35 mg/kg and the “Maximal locomotor activity (% of cocaine)” value (Rattus norvegicus [14]) was 146%.

Work on `COC(=O)C1C2CC[C@H](C[C@@H]1c1ccc(Cl)c(C)c1)N2C` (stereo partly drawn) yielded a Ki [3] of 2.8 nM, an IC50 [4] of 0.81 nM and an ED50 (Rattus norvegicus [8]) of 2.2 mg/kg. For the same molecule, the IC50 [5] was 10.5 nM, the Ki [5] was 0.95 nM and the Peak time (Rattus norvegicus [9]) was 30 min. The IC50 [6] was 36.2 nM, the IC50 [36] was 0.8 nM and the Time (Rattus norvegicus [11]) was >4 h. The ED50 (Rattus norvegicus [12]) was 0.21 mg/kg, the IC50 [37] was 1 nM and the “Maximal locomotor activity (% of cocaine)” value (Rattus norvegicus [14]) was 75%. For the same molecule, the AD50 (Mus musculus [1]) was 1.5 mM/kg, the IC50 [38] was 0.6 nM and the AD50 (Mus musculus [2]) was 3.5 mM/kg.

`CN1C2CC[C@@H]1C[C@H](c1ccc(Cl)cc1)C2C(=O)OCCc1ccc(N)cc1` (stereo partly drawn) gave an IC50 [4] of 2.16 nM.

For `Oc1cc2c(cc1O)C(c1ccccc1)CNCC2` (stereo not drawn), the NC [31] was “inactive” and the NC [32] was “inactive”.

With `CCc1ccc([C@H]2C[C@H]3CCC(N3)C2C(=O)OC)cc1` (stereo partly drawn) the Ki [3] was 74 nM, the IC50 [4] was 50 nM and the IC50 [5] was 8.1 nM. It also gave a Ki [5] of 0.74 nM and an IC50 [6] of 122 nM.

Molecule `Cc1ccc(-c2cc(C3C4CC[C@H](C[C@@H]3c3ccc(Cl)cc3)N4C)on2)cc1` (stereo partly drawn) has an ED50 (Rattus norvegicus [7]) of 3.54 mg/kg, a Ki [3] of 1030 nM and an IC50 [4] of 4.09 nM. The ED50 (Rattus norvegicus [8]) was 4.8 mg/kg, the IC50 [5] was 5740 nM and the Ki [5] was 522 nM. For the same molecule, the Peak time (Rattus norvegicus [9]) was 70 min, the IC50 [6] was 1710 nM and the Time (Rattus norvegicus [10]) was >4 h. For the same molecule, the Time (Rattus norvegicus [11]) was >4 h, the ED50 (Rattus norvegicus [12]) was 5.6 mg/kg and the Peak time (Rattus norvegicus [13]) was 60 min. For the same molecule, the “Maximal locomotor activity (% of cocaine)” value (Rattus norvegicus [14]) was 71%, the ED50 (Rattus norvegicus [15]) was 14.4 mg/kg and the Cocaine (Rattus norvegicus [16]) was 77%.
